Experimental data: patent publication US20060069132A1, “Azolecarboxamide herbicides” (priority 2004, published 2006)

Key:
Test in all cases: Test E pre-/postemergence herbicide test
green foxtail = format: in vivo, Setaria viridis
Source text: (§1) Seeds of plant species selected from bipinnate beggarticks (Bidens bipinnata L.), hairy beggarticks (Bidens radiata Thuill.), bermudagrass (Cynodon dactylon (L.) Pers.), Surinam grass (Urochloa decumbens (Staph) R. D. Webster, previously named Brachiaria decumbens Stapf), large crabgrass (Digitaria sanguinalis (L.) Scop.), green foxtail (Setaria viridis (L.) P. Beauv.), goosegrass (Eleusine indica (L.) Gaertn.), johnsongrass (Sorghum halepense (L.) Pers.), kochia (Kochia scoparia (L.) Schrad.), pitted morningglory (Ipomoea lacunosa L.), purple nutsedge (Cyperus rotundus L.), common ragweed (Ambrosia elatior L.), mustard (Brassica nigra (L.) W. D. J. Koch), guineagrass (Panicum maximum Jacq.), dallisgrass (Paspalum dilatatum Poir.), barnyardgrass (Echinochloa crus-galli (L). P. Beauv.), southern sandbur (Cenchrus echinatus L.), common sowthistle (Sonchus oleraceous L.), prickly sida (Sida spinosa L.), Italian ryegrass (Lolium multiflorum Lam.), common purslane (Portulaca oleracea L.), broadleaf signalgrass (Brachiaria platyphylla (Griseb.) Nash), common groundsel (Senecio vulgaris L.), common chickweed (Stellaria media (L.) Vill/Cyr.), tropical spiderwort (Commelina benghalensis L.), annual bluegrass (Poa annua L.), downy bromegrass (Bromus tectorum L.), itchgrass (Rottboellia cochinchinensis (L.) L.f.), quackgrass (Elytrigia repens (L.) Nevski), Canada horseweed (Erigeron Canadensis L.), field bindweed (Convolvulus arvensis L.), spotted spurge (Euphorbia maculata L.), common mallow (Malva sylvestris (=s silvestris) L.), and Russian thistle (Salsola kali L. ssp. Ruthenica (Iljin) Soo) were planted and treated preemergence with test chemicals formulated in a non-phytotoxic solvent mixture which included a surfactant.
(§2) At the same time, plants selected from these weed species were treated with postemergence applications of some of the test chemicals formulated in the same manner. Plants ranged in height from 2 to 18 cm (1- to 4-leaf stage) for postemergence treatments. Treated plants and controls were maintained in a greenhouse for 12 to 14 days, after which time all species were compared to controls and visually evaluated. Plant response ratings, summarized in Table E, are based on a scale of 0 to 100 where 0 is no effect and 100 is complete control. A dash (-) response means no test result.

pitted morningglory = format: in vivo, Ipomoea lacunosa
Source text: as §1, §2

purple nutsedge = format: in vivo, Cyperus rotundus
Source text: as §1, §2

mustard = format: in vivo, Brassica nigra
Source text: as §1, §2

dallisgrass = format: in vivo, Paspalum dilatatum
Source text: as §1, §2

southern sandbur = format: in vivo, Cenchrus echinatus
Source text: as §1, §2

common sowthistle = format: in vivo, Sonchus oleraceous
Source text: as §1, §2

itchgrass = format: in vivo, Rottboellia cochinchinensis
Source text: as §1, §2

field bindweed = format: in vivo, Convolvulus arvensis
Source text: as §1, §2

[1] = Postemergence, 500 g ai/ha, scale 0 to 100
[2] = Postemergence, 250 g ai/ha, scale 0 to 100
[3] = Preemergence, 62 g ai/ha, scale 0 to 100
[4] = Preemergence, 125 g ai/ha, scale 0 to 100
[5] = Preemergence, 250 g ai/ha, scale 0 (no effect) to 100 (complete control)
[6] = Preemergence, 500 g ai/ha, scale 0 (no effect) to 100 (complete control)
[7] = postemergence, 125 g ai/ha, scale 0 to 100
[8] = postemergence, 62 g ai/ha, scale 0 to 100
[9] = Preemergence, 125 g ai/ha, scale 0 (no effect) to 100 (complete control)

CCn1nc(C(C)(C)C)cc1C(=O)Nc1cccc(C(N)=O)n1 [Compound 162, 6-[[[3-(1,1-dimethylethyl)-1-ethyl-1H-pyrazol-5-yl]carbonyl]amino]-2-pyridinecarboxamide]
Plant response rating, Foxtail, Green (green foxtail; [1]): 95 | Plant response rating, Foxtail, Green (green foxtail; [2]): 85 | Plant response rating, Foxtail, Green (green foxtail; [3]): 30 | Plant response rating, Foxtail, Green (green foxtail; [4]): 85 | Plant response rating, Foxtail, Green (green foxtail; [5]): 100 | Plant response rating, Foxtail, Green (green foxtail; [6]): 100 | Plant response rating, Foxtail, Green (green foxtail; [7]): 50 | Plant response rating, Foxtail, Green (green foxtail; [8]): 30 | Plant response rating, Morningglory (pitted morningglory; [1]): 90 | Plant response rating, Morningglory (pitted morningglory; [2]): 80 | Plant response rating, Morningglory (pitted morningglory; [3]): 30 | Plant response rating, Morningglory (pitted morningglory; [4]): 60 | Plant response rating, Morningglory (pitted morningglory; [5]): 85 | Plant response rating, Morningglory (pitted morningglory; [6]): 100 | Plant response rating, Morningglory (pitted morningglory; [7]): 70 | Plant response rating, Morningglory (pitted morningglory; [8]): 30 | Plant response rating, Nutsedge, Purple (purple nutsedge; [2]): 75 | Plant response rating, Nutsedge, Purple (purple nutsedge; [3]): 0 | Plant response rating, Black Mustard (mustard; [1]): 95 | Plant response rating, Black Mustard (mustard; [2]): 90 | Plant response rating, Black Mustard (mustard; [3]): 20 | Plant response rating, Black Mustard (mustard; [4]): 50 | Plant response rating, Black Mustard (mustard; [5]): 80 | Plant response rating, Black Mustard (mustard; [6]): 100 | Plant response rating, Black Mustard (mustard; [7]): 75 | Plant response rating, Black Mustard (mustard; [8]): 60 | Plant response rating, Dallisgrass (dallisgrass; [1]): 85 | Plant response rating, Dallisgrass (dallisgrass; [2]): 70 | Plant response rating, Dallisgrass (dallisgrass; [3]): 70 | Plant response rating, Dallisgrass (dallisgrass; [4]): 95 | Plant response rating, Dallisgrass (dallisgrass; [5]): 95 | Plant response rating, Dallisgrass (dallisgrass; [6]): 95 | Plant response rating, Dallisgrass (dallisgrass; [7]): 40 | Plant response rating, Dallisgrass (dallisgrass; [8]): 20 | Plant response rating, Sandbur (southern sandbur; [1]): 90 | Plant response rating, Sandbur (southern sandbur; [2]): 80 | Plant response rating, Sandbur (southern sandbur; [3]): 20 | Plant response rating, Sandbur (southern sandbur; [4]): 70 | Plant response rating, Sandbur (southern sandbur; [5]): 80 | Plant response rating, Sandbur (southern sandbur; [6]): 80 | Plant response rating, Sandbur (southern sandbur; [7]): 50 | Plant response rating, Sandbur (southern sandbur; [8]): 20 | Plant response rating, Sowthistle (common sowthistle; [1]): 100 | Plant response rating, Sowthistle (common sowthistle; [2]): 75 | Plant response rating, Sowthistle (common sowthistle; [3]): 40 | Plant response rating, Sowthistle (common sowthistle; [4]): 60 | Plant response rating, Sowthistle (common sowthistle; [5]): 80 | Plant response rating, Sowthistle (common sowthistle; [6]): 95 | Plant response rating, Sowthistle (common sowthistle; [7]): 75 | Plant response rating, Sowthistle (common sowthistle; [8]): 75 | Plant response rating, Itchgrass (itchgrass; [1]): 95 | Plant response rating, Itchgrass (itchgrass; [2]): 95 | Plant response rating, Itchgrass (itchgrass; [3]): 40 | Plant response rating, Itchgrass (itchgrass; [4]): 95 | Plant response rating, Itchgrass (itchgrass; [5]): 95 | Plant response rating, Itchgrass (itchgrass; [6]): 100 | Plant response rating, Itchgrass (itchgrass; [7]): 85 | Plant response rating, Itchgrass (itchgrass; [8]): 75 | Plant response rating, Bindweed, Field (field bindweed; [1]): 98 | Plant response rating, Bindweed, Field (field bindweed; [2]): 95 | Plant response rating, Bindweed, Field (field bindweed; [3]): 30 | Plant response rating, Bindweed, Field (field bindweed; [4]): 80 | Plant response rating, Bindweed, Field (field bindweed; [5]): 100 | Plant response rating, Bindweed, Field (field bindweed; [6]): 100 | Plant response rating, Bindweed, Field (field bindweed; [7]): 80 | Plant response rating, Bindweed, Field (field bindweed; [8]): 50

CCNC(=O)c1ccc(F)c(NC(=O)c2cc(C(C)(C)C)nn2CC)c1 [Compound 2, 3-(1,1-dimethylethyl)-1-ethyl-N-[5-[(ethylamino)carbonyl]-2-fluorophenyl]-1H-pyrazole-5-carboxamide]
Plant response rating, Foxtail, Green (green foxtail; [2]): 95 | Plant response rating, Foxtail, Green (green foxtail; [3]): 40 | Plant response rating, Foxtail, Green (green foxtail; [9]): 80 | Plant response rating, Foxtail, Green (green foxtail; [5]): 100 | Plant response rating, Foxtail, Green (green foxtail; [6]): 100 | Plant response rating, Foxtail, Green (green foxtail; [7]): 90 | Plant response rating, Foxtail, Green (green foxtail; [8]): 60 | Plant response rating, Morningglory (pitted morningglory; [2]): 90 | Plant response rating, Morningglory (pitted morningglory; [3]): 30 | Plant response rating, Morningglory (pitted morningglory; [9]): 50 | Plant response rating, Morningglory (pitted morningglory; [5]): 60 | Plant response rating, Morningglory (pitted morningglory; [6]): 80 | Plant response rating, Morningglory (pitted morningglory; [7]): 60 | Plant response rating, Nutsedge, Purple (purple nutsedge; [6]): 95 | Plant response rating, Black Mustard (mustard; [2]): 100 | Plant response rating, Black Mustard (mustard; [3]): 60 | Plant response rating, Black Mustard (mustard; [9]): 100 | Plant response rating, Black Mustard (mustard; [5]): 100 | Plant response rating, Black Mustard (mustard; [6]): 100 | Plant response rating, Black Mustard (mustard; [7]): 95 | Plant response rating, Black Mustard (mustard; [8]): 90 | Plant response rating, Dallisgrass (dallisgrass; [2]): 90 | Plant response rating, Dallisgrass (dallisgrass; [3]): 60 | Plant response rating, Dallisgrass (dallisgrass; [9]): 90 | Plant response rating, Dallisgrass (dallisgrass; [5]): 95 | Plant response rating, Dallisgrass (dallisgrass; [6]): 95 | Plant response rating, Dallisgrass (dallisgrass; [7]): 80 | Plant response rating, Dallisgrass (dallisgrass; [8]): 75 | Plant response rating, Sandbur (southern sandbur; [2]): 95 | Plant response rating, Sandbur (southern sandbur; [3]): 60 | Plant response rating, Sandbur (southern sandbur; [9]): 70 | Plant response rating, Sandbur (southern sandbur; [5]): 80 | Plant response rating, Sandbur (southern sandbur; [6]): 100 | Plant response rating, Sandbur (southern sandbur; [7]): 75 | Plant response rating, Sandbur (southern sandbur; [8]): 65 | Plant response rating, Sowthistle (common sowthistle; [2]): 95 | Plant response rating, Sowthistle (common sowthistle; [3]): 90 | Plant response rating, Sowthistle (common sowthistle; [9]): 95 | Plant response rating, Sowthistle (common sowthistle; [5]): 95 | Plant response rating, Sowthistle (common sowthistle; [6]): 95 | Plant response rating, Sowthistle (common sowthistle; [7]): 90 | Plant response rating, Sowthistle (common sowthistle; [8]): 90 | Plant response rating, Itchgrass (itchgrass; [2]): 90 | Plant response rating, Itchgrass (itchgrass; [3]): 60 | Plant response rating, Itchgrass (itchgrass; [9]): 70 | Plant response rating, Itchgrass (itchgrass; [5]): 90 | Plant response rating, Itchgrass (itchgrass; [6]): 95 | Plant response rating, Itchgrass (itchgrass; [7]): 90 | Plant response rating, Itchgrass (itchgrass; [8]): 70 | Plant response rating, Bindweed, Field (field bindweed; [2]): 70 | Plant response rating, Bindweed, Field (field bindweed; [3]): 10 | Plant response rating, Bindweed, Field (field bindweed; [5]): 70 | Plant response rating, Bindweed, Field (field bindweed; [6]): 80 | Plant response rating, Bindweed, Field (field bindweed; [7]): 70 | Plant response rating, Bindweed, Field (field bindweed; [8]): 50
